Experiments:
Experiment in all cases: SILAC RP-ABPP
Assay type in all cases: cell-based
[1] = target: T1, CCBL2 Kynurenine oxoglutarate transaminase (Q6YP21) (Homo sapiens, UniProt Q6YP21); settings: SILAC H/L, HEK293T
T1 construct: shared by both the endogenous and recombinant forms of these proteins; endogenous in cells; host or cells: HEK293T and MDA-MB-231
Outline: (§1)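 SILAC cells (HEK293T, MDA-MB-231) grown near confluence; heavy: probe 1, 3 mM, 0.5 h; light: equal 3 or probe + 10× 3. Proteomes mixed equimolar, CuAAC with 100 μM biotin-azide, 1 h RT; enrichment, LC-MS. Ratios via CIMAGE-type extraction, ≥3 peptides.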

[2] = target: T2, NSFL1C NSFL1 cofactor p47 (Q9UNZ2) (Homo sapiens, UniProt Q9UNZ2); settings: SILAC H/L, MDA-MB-231
T2 construct: In Situ Labelling of Cells with Hydrazine Probes for MS Experiments; endogenous in cells
Outline: as §1

[3] = target: T3, IRS4 Insulin receptor substrate 4 (O14654) (Homo sapiens, UniProt O14654); settings: SILAC H/L, HEK293T
T3 construct: In Situ Labelling of Cells with Hydrazine Probes for MS Experiments; endogenous in cells
T3 sequence (O14654 whole entry): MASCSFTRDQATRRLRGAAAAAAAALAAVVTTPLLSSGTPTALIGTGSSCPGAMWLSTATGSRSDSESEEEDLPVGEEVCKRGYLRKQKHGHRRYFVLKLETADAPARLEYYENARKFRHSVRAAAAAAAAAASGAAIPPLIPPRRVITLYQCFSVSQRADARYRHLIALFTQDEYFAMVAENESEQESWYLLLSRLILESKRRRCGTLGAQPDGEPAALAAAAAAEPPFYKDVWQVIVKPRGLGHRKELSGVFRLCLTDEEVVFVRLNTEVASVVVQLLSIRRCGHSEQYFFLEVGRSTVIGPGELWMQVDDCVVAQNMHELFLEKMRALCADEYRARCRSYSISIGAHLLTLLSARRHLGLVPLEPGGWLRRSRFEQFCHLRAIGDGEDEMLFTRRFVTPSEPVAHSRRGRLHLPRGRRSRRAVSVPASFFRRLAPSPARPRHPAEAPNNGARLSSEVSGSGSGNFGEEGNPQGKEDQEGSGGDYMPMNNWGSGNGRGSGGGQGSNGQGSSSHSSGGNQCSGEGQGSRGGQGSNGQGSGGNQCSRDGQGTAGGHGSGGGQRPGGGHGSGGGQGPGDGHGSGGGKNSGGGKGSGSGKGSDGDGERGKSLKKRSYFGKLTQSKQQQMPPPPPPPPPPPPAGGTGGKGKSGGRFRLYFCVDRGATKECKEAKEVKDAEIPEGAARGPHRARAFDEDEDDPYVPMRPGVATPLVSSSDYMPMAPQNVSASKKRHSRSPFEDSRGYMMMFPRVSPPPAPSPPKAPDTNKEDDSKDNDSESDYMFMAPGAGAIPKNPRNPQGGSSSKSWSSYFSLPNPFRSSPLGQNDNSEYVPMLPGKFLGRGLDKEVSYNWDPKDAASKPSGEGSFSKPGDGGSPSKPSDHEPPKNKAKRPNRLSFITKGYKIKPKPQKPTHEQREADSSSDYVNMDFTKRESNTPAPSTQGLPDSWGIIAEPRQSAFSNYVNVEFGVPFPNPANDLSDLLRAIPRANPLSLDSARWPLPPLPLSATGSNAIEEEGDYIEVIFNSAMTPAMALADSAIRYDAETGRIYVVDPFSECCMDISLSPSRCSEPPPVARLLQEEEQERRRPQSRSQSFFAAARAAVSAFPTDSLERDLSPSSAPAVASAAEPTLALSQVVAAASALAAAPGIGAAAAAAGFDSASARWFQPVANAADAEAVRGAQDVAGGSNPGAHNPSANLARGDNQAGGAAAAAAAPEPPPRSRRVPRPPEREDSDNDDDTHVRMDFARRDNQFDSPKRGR
Outline: as §1

[4] = target: T4, CPVL Probable serine carboxypeptidase CPVL (Q9H3G5) (Homo sapiens, UniProt Q9H3G5); settings: SILAC H/L, HEK293T
T4 construct: shared by both the endogenous and recombinant forms of these proteins; endogenous in cells; host or cells: HEK293T and MDA-MB-231
Outline: as §1

[5] = target: T5, ALDH9A1 4trimethylaminobutyraldehyde (P49189) (Homo sapiens, UniProt P49189); settings: SILAC H/L, HEK293T
T5 construct: shared by both the endogenous and recombinant forms of these proteins; endogenous in cells; host or cells: HEK293T and MDA-MB-231
T5 sequence (P49189 whole entry): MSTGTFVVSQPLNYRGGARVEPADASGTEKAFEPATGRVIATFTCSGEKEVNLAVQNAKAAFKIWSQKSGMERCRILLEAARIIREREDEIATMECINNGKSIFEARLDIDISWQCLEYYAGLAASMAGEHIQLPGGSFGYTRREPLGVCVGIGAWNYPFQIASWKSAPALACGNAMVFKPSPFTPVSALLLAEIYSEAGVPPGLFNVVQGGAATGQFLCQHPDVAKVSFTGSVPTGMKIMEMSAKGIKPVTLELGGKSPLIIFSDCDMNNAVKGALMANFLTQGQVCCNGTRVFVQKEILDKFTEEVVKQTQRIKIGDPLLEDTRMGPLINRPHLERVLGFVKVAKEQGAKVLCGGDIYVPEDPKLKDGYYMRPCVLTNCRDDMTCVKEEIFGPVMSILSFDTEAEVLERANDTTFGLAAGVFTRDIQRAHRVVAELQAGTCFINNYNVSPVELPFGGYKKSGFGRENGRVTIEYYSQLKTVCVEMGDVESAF
Outline: as §1

[6] = target: T6, BLMH Bleomycin hydrolase (Q13867) (Homo sapiens, UniProt Q13867); settings: SILAC H/L, HEK293T
T6 construct: In Situ Labelling of Cells with Hydrazine Probes for MS Experiments; endogenous in cells
T6 sequence (Q13867 whole entry): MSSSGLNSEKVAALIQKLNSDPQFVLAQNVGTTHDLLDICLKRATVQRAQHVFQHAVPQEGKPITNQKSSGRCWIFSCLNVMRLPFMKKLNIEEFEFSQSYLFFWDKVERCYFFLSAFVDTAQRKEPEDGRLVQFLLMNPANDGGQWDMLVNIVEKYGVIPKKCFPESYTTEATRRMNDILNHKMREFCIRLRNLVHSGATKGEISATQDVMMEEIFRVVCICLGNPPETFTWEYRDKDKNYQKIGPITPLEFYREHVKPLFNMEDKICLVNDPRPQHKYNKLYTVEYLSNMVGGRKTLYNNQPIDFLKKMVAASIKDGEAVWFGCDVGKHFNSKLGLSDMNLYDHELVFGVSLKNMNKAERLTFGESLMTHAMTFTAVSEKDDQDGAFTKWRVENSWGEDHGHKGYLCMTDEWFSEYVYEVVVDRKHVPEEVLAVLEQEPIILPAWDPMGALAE
Outline: as §1

[7] = target: T7, VAPA Vesicleassociated membrane (Q9P0L0) (Homo sapiens, UniProt Q9P0L0); settings: SILAC H/L, MDA-MB-231
T7 construct: In Situ Labelling of Cells with Hydrazine Probes for MS Experiments; endogenous in cells
T7 sequence (Q9P0L0 whole entry): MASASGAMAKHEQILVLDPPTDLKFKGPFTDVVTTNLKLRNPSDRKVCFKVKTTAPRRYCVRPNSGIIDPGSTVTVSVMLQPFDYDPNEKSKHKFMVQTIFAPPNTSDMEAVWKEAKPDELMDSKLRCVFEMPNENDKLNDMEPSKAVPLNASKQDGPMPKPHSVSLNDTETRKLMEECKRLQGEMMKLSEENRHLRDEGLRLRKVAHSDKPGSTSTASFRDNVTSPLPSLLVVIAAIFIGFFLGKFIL
Outline: as §1

[8] = target: T8, DCUN1D5 DCN1like protein 5 (Q9BTE7) (Homo sapiens, UniProt Q9BTE7); settings: SILAC H/L, HEK293T
T8 construct: shared by both the endogenous and recombinant forms of these proteins; endogenous in cells; host or cells: HEK293T and MDA-MB-231
T8 sequence (Q9BTE7 whole entry): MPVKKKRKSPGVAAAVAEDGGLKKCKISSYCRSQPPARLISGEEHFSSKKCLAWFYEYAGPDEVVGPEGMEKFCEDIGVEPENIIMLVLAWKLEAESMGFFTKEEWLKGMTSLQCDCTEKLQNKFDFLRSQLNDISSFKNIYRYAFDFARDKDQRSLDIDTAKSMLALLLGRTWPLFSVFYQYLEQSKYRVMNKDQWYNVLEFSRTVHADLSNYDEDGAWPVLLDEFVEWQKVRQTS
Outline: as §1

[9] = target: T9, PITRM1 Presequence protease mitochondrial (Q5JRX3) (Homo sapiens, UniProt Q5JRX3); settings: SILAC H/L, MDA-MB-231
T9 construct: In Situ Labelling of Cells with Hydrazine Probes for MS Experiments; endogenous in cells
T9 sequence (Q5JRX3 29-1037): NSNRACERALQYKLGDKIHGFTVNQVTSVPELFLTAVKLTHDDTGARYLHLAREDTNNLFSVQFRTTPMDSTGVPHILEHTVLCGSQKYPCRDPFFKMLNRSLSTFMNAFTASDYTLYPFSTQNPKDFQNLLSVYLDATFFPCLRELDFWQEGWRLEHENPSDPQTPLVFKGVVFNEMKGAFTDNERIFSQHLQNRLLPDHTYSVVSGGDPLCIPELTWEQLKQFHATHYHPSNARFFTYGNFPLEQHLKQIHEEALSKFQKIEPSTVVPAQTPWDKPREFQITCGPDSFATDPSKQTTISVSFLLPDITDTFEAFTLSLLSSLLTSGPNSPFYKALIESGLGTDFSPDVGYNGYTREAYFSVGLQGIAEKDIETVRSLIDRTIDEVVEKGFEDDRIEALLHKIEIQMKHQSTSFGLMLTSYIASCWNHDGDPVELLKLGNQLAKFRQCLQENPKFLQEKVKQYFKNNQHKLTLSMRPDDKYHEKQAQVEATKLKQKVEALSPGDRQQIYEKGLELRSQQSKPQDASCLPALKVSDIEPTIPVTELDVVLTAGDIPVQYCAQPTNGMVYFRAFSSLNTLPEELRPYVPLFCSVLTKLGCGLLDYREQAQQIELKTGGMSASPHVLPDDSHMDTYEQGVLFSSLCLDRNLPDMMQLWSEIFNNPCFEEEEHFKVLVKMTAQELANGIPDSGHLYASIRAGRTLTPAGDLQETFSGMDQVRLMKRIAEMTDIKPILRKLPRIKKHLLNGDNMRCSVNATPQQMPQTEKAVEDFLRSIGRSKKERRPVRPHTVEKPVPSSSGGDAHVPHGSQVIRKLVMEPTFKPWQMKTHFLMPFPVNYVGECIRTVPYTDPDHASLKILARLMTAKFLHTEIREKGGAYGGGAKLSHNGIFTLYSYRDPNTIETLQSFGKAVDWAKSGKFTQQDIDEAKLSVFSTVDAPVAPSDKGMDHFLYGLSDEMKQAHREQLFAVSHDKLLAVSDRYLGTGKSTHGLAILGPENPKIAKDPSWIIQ
Outline: as §1

[10] = target: T10, APP Amyloid beta A4 protein (P05067) (Homo sapiens, UniProt P05067); settings: SILAC H/L, MDA-MB-231
T10 construct: shared by both the endogenous and recombinant forms of these proteins; endogenous in cells; host or cells: HEK293T and MDA-MB-231
Outline: as §1

[11] = target: T11, BLVRB Flavin reductase (NADPH) (P30043) (Homo sapiens, UniProt P30043); settings: SILAC H/L, HEK293T
T11 construct: shared by both the endogenous and recombinant forms of these proteins; endogenous in cells; host or cells: HEK293T and MDA-MB-231
T11 sequence (P30043 whole entry): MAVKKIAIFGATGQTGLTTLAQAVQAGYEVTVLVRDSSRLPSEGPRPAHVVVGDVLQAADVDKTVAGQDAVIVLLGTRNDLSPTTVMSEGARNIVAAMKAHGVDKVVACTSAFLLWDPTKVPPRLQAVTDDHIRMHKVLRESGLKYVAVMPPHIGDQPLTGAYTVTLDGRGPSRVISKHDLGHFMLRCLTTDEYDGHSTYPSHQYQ
Outline: as §1

[12] = target: T12, GLA Alphagalactosidase A (P06280) (Homo sapiens, UniProt P06280); settings: SILAC H/L, HEK293T
T12 construct: shared by both the endogenous and recombinant forms of these proteins; endogenous in cells; host or cells: HEK293T and MDA-MB-231
Outline: as §1

[13] = target: T13, PPA2 Inorganic pyrophosphatase 2 (Q9H2U2) (Homo sapiens, UniProt Q9H2U2); settings: SILAC H/L, HEK293T
T13 construct: In Situ Labelling of Cells with Hydrazine Probes for MS Experiments; endogenous in cells
T13 sequence (Q9H2U2 33-334): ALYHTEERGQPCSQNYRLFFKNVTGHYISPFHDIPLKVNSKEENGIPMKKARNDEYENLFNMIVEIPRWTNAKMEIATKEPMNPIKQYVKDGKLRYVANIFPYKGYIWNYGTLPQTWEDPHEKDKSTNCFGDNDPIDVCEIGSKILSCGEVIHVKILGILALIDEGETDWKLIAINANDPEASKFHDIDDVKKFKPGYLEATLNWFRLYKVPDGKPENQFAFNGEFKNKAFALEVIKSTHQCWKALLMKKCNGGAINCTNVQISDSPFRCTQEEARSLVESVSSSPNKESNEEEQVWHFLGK
Outline: as §1

T1 sequence (Q6YP21 whole entry): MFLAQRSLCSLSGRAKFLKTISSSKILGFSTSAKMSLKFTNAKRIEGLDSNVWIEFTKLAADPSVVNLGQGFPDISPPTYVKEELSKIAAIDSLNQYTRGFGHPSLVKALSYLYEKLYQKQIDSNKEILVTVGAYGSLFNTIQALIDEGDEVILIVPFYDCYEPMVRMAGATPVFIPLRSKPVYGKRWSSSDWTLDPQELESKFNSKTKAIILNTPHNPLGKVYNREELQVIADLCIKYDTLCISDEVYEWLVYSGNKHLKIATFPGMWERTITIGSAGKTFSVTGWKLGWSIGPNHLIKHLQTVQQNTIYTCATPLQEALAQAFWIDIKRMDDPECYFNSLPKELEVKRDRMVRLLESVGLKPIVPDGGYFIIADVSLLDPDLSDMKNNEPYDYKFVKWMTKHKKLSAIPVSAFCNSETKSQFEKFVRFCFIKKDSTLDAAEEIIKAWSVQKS

How did the enrichment ratioavg ([1]; probe 1 3 mM 0.5 h vs probe 3) turn out when `C#CCNN.Cl` [probe 1, prop-2-yn-1-ylhydrazine hydrochloride] was run?
The enrichment ratioavg was 10.

What about the competition ratioavg ([1]; probe 1 vs probe 1+10x probe 3) of the same compound?
The competition ratioavg was 4.

What about the enrichment ratioavg ([2]; probe 1 3 mM 0.5 h vs probe 3) of the same compound?
Its enrichment ratioavg is 8.

What about the competition ratioavg ([2]; probe 1 vs probe 1+10x probe 3) of the same compound?
The competition ratioavg was 1.

And the enrichment ratioavg ([3]; probe 1 3 mM 0.5 h vs probe 3)?
The enrichment ratioavg was 20.

And the competition ratioavg ([3]; probe 1 vs probe 1+10x probe 3)?
The competition ratioavg was 1.

And the enrichment ratioavg ([4]; probe 1 3 mM 0.5 h vs probe 3)?
Its enrichment ratioavg is 13.

And the competition ratioavg ([4]; probe 1 vs probe 1+10x probe 3)?
The competition ratioavg was 3.

And the enrichment ratioavg ([5]; probe 1 3 mM 0.5 h vs probe 3)?
The enrichment ratioavg was 12.

What about the competition ratioavg ([5]; probe 1 vs probe 1+10x probe 3) of the same compound?
Its competition ratioavg is 2.

What about the enrichment ratioavg ([6]; probe 1 3 mM 0.5 h vs probe 3) of the same compound?
The enrichment ratioavg was 9.

And the competition ratioavg ([6]; probe 1 vs probe 1+10x probe 3)?
The competition ratioavg was 1.

What about the enrichment ratioavg ([7]; probe 1 3 mM 0.5 h vs probe 3) of the same compound?
Its enrichment ratioavg is 20.

What about the competition ratioavg ([7]; probe 1 vs probe 1+10x probe 3) of the same compound?
Its competition ratioavg is 1.

What about the enrichment ratioavg ([8]; probe 1 3 mM 0.5 h vs probe 3) of the same compound?
Its enrichment ratioavg is 6.

What about the competition ratioavg ([8]; probe 1 vs probe 1+10x probe 3) of the same compound?
Its competition ratioavg is 2.

And the enrichment ratioavg ([9]; probe 1 3 mM 0.5 h vs probe 3)?
Its enrichment ratioavg is 12.

And the competition ratioavg ([9]; probe 1 vs probe 1+10x probe 3)?
The competition ratioavg was 2.

What about the enrichment ratioavg ([10]; probe 1 3 mM 0.5 h vs probe 3) of the same compound?
Its enrichment ratioavg is 16.

What about the competition ratioavg ([10]; probe 1 vs probe 1+10x probe 3) of the same compound?
Its competition ratioavg is 4.

And the enrichment ratioavg ([11]; probe 1 3 mM 0.5 h vs probe 3)?
Its enrichment ratioavg is 20.

And the competition ratioavg ([11]; probe 1 vs probe 1+10x probe 3)?
Its competition ratioavg is 2.

And the enrichment ratioavg ([12]; probe 1 3 mM 0.5 h vs probe 3)?
The enrichment ratioavg was 11.

What about the competition ratioavg ([12]; probe 1 vs probe 1+10x probe 3) of the same compound?
The competition ratioavg was 3.

And the enrichment ratioavg ([13]; probe 1 3 mM 0.5 h vs probe 3)?
Its enrichment ratioavg is 7.

And the competition ratioavg ([13]; probe 1 vs probe 1+10x probe 3)?
The competition ratioavg was 1.
